From PubChem BioAssay (NCI)
“And” between values parts separate entries of the source, which are not always exact repeats. Identical values can stand only once.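 How tested: cells in 96-well plates exposed to compound for 48 hours at five concentrations. Abbreviation: GI50, concentration required for 50% inhibition of growth. TGI: concentration producing complete growth inhibition.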

What was measured:
Assay in all cases: DTP human tumour cell line panel, 48 h
CCRF-CEM leukemia = test system: CCRF-CEM leukemia
HOP-62 NSCLC = test system: HOP-62 NSCLC
K-562 leukemia = test system: K-562 leukemia
KM12 colon = test system: KM12 colon
MOLT-4 leukemia = test system: MOLT-4 leukemia
NCI-H522 lung = test system: NCI-H522 lung
SK-MEL-5 melanoma = test system: SK-MEL-5 melanoma
SK-OV-3 ovarian = test system: SK-OV-3 ovarian
SNB-75 CNS = test system: SNB-75 CNS
T-47D breast = test system: T-47D breast

| Compound | GI50 (CCRF-CEM leukemia) | TGI (CCRF-CEM leukemia) [µM] | GI50 (HOP-62 NSCLC) | TGI (HOP-62 NSCLC) | GI50 (K-562 leukemia) | TGI (K-562 leukemia) [µM] | GI50 (KM12 colon) | TGI (KM12 colon) [µM] | GI50 (MOLT-4 leukemia) | TGI (MOLT-4 leukemia) [µM] | GI50 (NCI-H522 lung) | TGI (NCI-H522 lung) | GI50 (SK-MEL-5 melanoma) | TGI (SK-MEL-5 melanoma) | GI50 (SK-OV-3 ovarian) | TGI (SK-OV-3 ovarian) | GI50 (SNB-75 CNS) | TGI (SNB-75 CNS) | GI50 (T-47D breast) [µM] | TGI (T-47D breast) [µM] |
| --- | --- | --- | --- | --- | --- | --- | --- | --- | --- | --- | --- | --- | --- | --- | --- | --- | --- | --- | --- | --- |
| Cc1csc(/C=C/C(=O)c2nnn(-c3ccnc4c(C(F)(F)F)cccc34)c2C)c1 | 21.9 µM | > 100 | > 100 µM | > 100 µM | 23 µM | > 100 | 52.7 µM | > 100 | 22.2 µM | 66.9 | 26.4 µM | > 100 µM | 17.9 µM | 57 µM | 89.1 µM | > 100 µM | 27.3 µM | 99.4 µM | 21.1 | > 100 |
| CN(C)CCNC(=O)c1cccc(N(C)C(=O)c2ccccc2)c1[N+](=O)[O-] | – | > 100 | – | > 100 µM | – | > 100 | – | > 100 | – | > 100 | – | > 100 µM | – | > 100 µM | – | > 100 µM | – | > 100 µM | – | > 100 |
| COc1cccc(NC(=O)c2sc3nc(C)c(C(O)c4ccccc4)cc3c2N)c1 (centres undefined) | 0.219 µM | > 79.7 | 0.481 µM | 26.2 µM | 0.117 µM | > 100 | 0.337 µM | 11.8 | 0.378 µM | 19.5 | 0.308 µM | 14.1 µM | 0.287 µM | 1.32 µM | 0.658 µM | 23.8 µM | 0.174 µM | 4.55 µM | 0.737 | 28.4 |
| CNC(=O)c1ccccc1Nc1nc(Nc2cc(OC)c(OC)c(OC)c2)ncc1Br | 0.0523 µM | > 19.9 | 0.0349 µM | 2.31 µM | 0.0874 µM | > 38.9 | < 0.0136 µM | 4.98 | 0.0501 µM | 5.75 | 0.0417 µM | 1.85 µM | 0.054 µM | 1.18 µM | 0.0309 µM | 5.13 µM | < 0.0124 µM | 0.0494 µM | 1.07 | 6.71 |
| N=c1ccn(O)cc1/C=C1/C(=O)Nc2ccccc21 | > 100 µM | > 100 | > 100 µM | > 100 µM | > 100 µM | > 100 | > 100 µM | > 100 | > 100 µM | > 100 | > 100 µM | > 100 µM | > 100 µM | > 100 µM | > 100 µM | > 100 µM | > 100 µM | > 100 µM | > 100 | > 100 |
| CN(Cc1ccccc1)c1ccc(CO)c(Cl)c1 | 32.5 µM | > 100 | 6.41 µM | > 58.6 µM | 9.81 µM | > 100 | 22.6 µM | > 86.5 | 26.4 µM | > 82.6 | 29 µM | > 100 µM | 13.6 µM | 37.5 µM | 8.99 µM | 52 µM | 22.4 µM | > 80.7 µM | 0.857 | 5.45 |
| O=Nc1ccc(NO)c2ccccc12 | 8.04 µM | 58.9 | 14.6 µM | 27.9 µM | 16.1 µM | 44.6 | 15.6 µM | 30.4 | 26.6 µM | 88.1 | 13.2 µM | 27 µM | 11.7 µM | 24.2 µM | 19.1 µM | 35.6 µM | 18.3 µM | 32.4 µM | 3.67 | 21.4 |
| Cc1nnc(-c2cccc(-c3ccc(C(=O)NCC4CC4)cc3)c2)o1 | > 25 µM | > 25 | > 25 µM | > 25 µM | > 25 µM | > 25 | 15.5 µM | > 25 | > 25 µM | > 25 | > 25 µM | > 25 µM | > 25 µM | > 25 µM | > 25 µM | > 25 µM | > 25 µM | > 25 µM | > 16.9 | > 25 |
| O=C(Nc1ccncc1)C(=O)c1cn(S(=O)(=O)c2ccc(Cl)cc2)c2ccccc12 | 3.18 µM | > 100 | 1.73 µM | 22 µM | 1.08 µM | > 100 | 0.567 µM | > 100 | 3.63 µM | > 100 | 0.279 µM | 1.08 µM | 0.443 µM | 11.9 µM | 19.6 µM | 73.8 µM | 1.23 µM | 10.9 µM | 0.905 | > 100 |
| CC(C)=CCC[C@](C)(O)[C@H]1CC[C@]2(C)[C@@H]1CC[C@@H]1[C@@]3(C)CC/C(=N/O)C(C)(C)[C@@H]3CC[C@]12C | 14.2 µM | > 100 | 11.1 µM | 40.9 µM | 6.06 µM | > 100 | 12.5 µM | > 100 | 10.1 µM | > 100 | 13.5 µM | 99 µM | 19.4 µM | > 100 µM | 25.7 µM | > 100 µM | 25.4 µM | > 100 µM | 2.86 | 88.1 |
| O=C(Cc1ccc(F)c(F)c1)Nc1cc(C2(C(F)(F)F)CC2)nn1Cc1ccccc1 | 4.79 µM | > 15 | 4.55 µM | > 15 µM | 5.01 µM | > 15 | 4.41 µM | > 15 | 3.96 µM | 13.8 | 3.08 µM | 9.89 µM | 2.77 µM | 5.4 µM | 3.56 µM | 11.8 µM | 0.747 µM | 7.09 µM | 2.96 | 13 |
| O=C(O)C1(C(=O)O)CCC1.[NH2-].[NH2-].[Pt+2] | 73.5 µM and 22.7 µM | > 250 | 139 µM and > 250 µM | 240 µM and > 250 µM | 142 µM and > 166 µM | > 250 | 218 µM and > 250 µM | > 250 | 86.4 µM and 28 µM | > 237 | 54.9 µM and 95.7 µM | 145 µM and 190 µM | 109 µM and > 194 µM | 218 µM and > 250 µM | 172 µM and > 240 µM | 243 µM and > 250 µM | 108 µM and > 114 µM | 247 µM and > 250 µM | > 250 | > 250 |
| [N-]=[N+]=NCCCCCC(=O)OC(C(=O)c1ccccc1)c1cccc(OCC(=O)NCCOCCOCCNC(=O)CCCC[C@@H]2SC[C@@H]3NC(=O)N[C@@H]32)c1 (some centres undefined) | 52.2 µM | > 100 | > 100 µM | > 100 µM | 62.9 µM | > 100 | > 100 µM | > 100 | 43.8 µM | > 100 | > 100 µM | > 100 µM | > 100 µM | > 100 µM | > 100 µM | > 100 µM | 95.8 µM | > 100 µM | 60.7 | > 100 |
| Cn1cnc([N+](=O)[O-])c1Sc1nc(N)nc2c1ncn2C1CC(O)C(CO)O1 (centres undefined) | – | > 100 | – | > 100 µM | – | > 100 | – | 12.1 | – | 16.4 | – | 14.4 µM | – | 22.9 µM | – | > 79.1 µM | – | 37.7 µM | – | > 63.9 |
| NCC1OC(n2cnc3c(N)ncnc32)CC1O (centres undefined) | – | > 100 | – | > 100 µM | – | > 100 | – | > 100 | – | > 100 | – | > 100 µM | – | > 100 µM | – | > 100 µM | – | > 100 µM | – | > 100 |
| Nc1c(C(=O)Nc2cccc(F)c2)sc2nc3c(cc12)C(=O)CCC3 | 0.341 µM | > 100 | 0.685 µM | > 100 µM | 0.16 µM | > 75 | 0.384 µM | > 100 | 21.9 µM | > 100 | 0.371 µM | > 100 µM | 0.391 µM | > 100 µM | 0.436 µM | > 100 µM | 0.339 µM | > 56.5 µM | – | > 100 |
| CCOC(=O)c1cc2c(cc1Cl)SC(N(c1ccc(OC)cc1)S(=O)(=O)c1ccc(Cl)cc1)=NS2(=O)=O | 0.666 µM | > 100 | > 100 µM | > 100 µM | 38.6 µM | > 100 | 46.7 µM | > 100 | 30.7 µM | > 100 | 21 µM | 64.8 µM | 21.2 µM | 54.4 µM | > 100 µM | > 100 µM | 23.3 µM | 90.4 µM | 12.1 | 36.1 |
| C=C1CCC2C3(C)COC(c4ccccc4)OC3CCC2(C)C1/C=C/C1=CCOC1=O (centres undefined) | 1.89 µM | 5.65 | 22.9 µM | 46.7 µM | 2.31 µM | > 100 | 2.91 µM | 11.4 | 2.55 µM | 15.1 | 3.65 µM | 14.9 µM | 8.67 µM | 21.6 µM | 11.5 µM | > 100 µM | 2.64 µM | 10.1 µM | 19.9 | 69.4 |
| Clc1ccc(-c2c3c(nn2-c2ccccn2)CCc2ccccc2-3)cc1Cl | > 100 µM | > 100 | 50.2 µM | > 100 µM | > 100 µM | > 100 | > 100 µM | > 100 | > 100 µM | > 100 | > 100 µM | > 100 µM | > 100 µM | > 100 µM | > 100 µM | > 100 µM | 67.6 µM | > 100 µM | > 100 | > 100 |
| CC(=O)C1=C(O)C=C2Oc3c(C(=O)/C=C/c4c(Cl)cccc4Cl)c(O)c(C)c(O)c3[C@]2(C)C1=O | 0.573 µM | 5.43 | 1.58 µM | 5.08 µM | 0.619 µM | 15 | 1.15 µM | 3.99 | 0.666 µM | 8.57 | 0.46 µM | 2.77 µM | 1.5 µM | 3.75 µM | 2.57 µM | 7.4 µM | 2.12 µM | 4.76 µM | 0.38 | 2.41 |
| O=C1C=CC(=Nc2cc(Br)c(O)c(Br)c2)C=C1 | 3.53 µM | > 100 | 28.4 µM | 76.1 µM | 5.83 µM | > 100 | 16.9 µM | 42.5 | 8.71 µM | > 100 | 3.96 µM | 28.8 µM | 15.6 µM | 32.1 µM | 52.8 µM | > 100 µM | 27.5 µM | > 100 µM | 12.4 | 41.4 |
